Assay results published in ChEMBL document CHEMBL5150049, “The discovery of (1R, 3R)-1-(3-chloro-5-fluorophenyl)-3-(hydroxymethyl)-1,2,3,4-tetrahydroisoquinoline-6-carbonitrile, a potent and selective agonist of human transient receptor potential cation channel subfamily m member 5 (TRPM5) and evaluation of as a potential gastrointestinal prokinetic agent” (Bioorg Med Chem, 2022).
pEC50: −log10 of the molar value. Converted amounts (≈) assume the structure as drawn. The source made the active and inactive calls. The rule behind the calls is not given here.

What was measured:
[1] = target: T1, Transient receptor potential cation channel subfamily M member 5 (Homo sapiens, UniProt Q9NZQ8); experiment: Agonist activity at human TRPM5 expressed in CHO-K1 cells assessed as increase in relative fluorescence unit measured for 2 mins by FLIPR based membrane potential assay; type: cell-based
T1 sequence (Q9NZQ8 whole entry): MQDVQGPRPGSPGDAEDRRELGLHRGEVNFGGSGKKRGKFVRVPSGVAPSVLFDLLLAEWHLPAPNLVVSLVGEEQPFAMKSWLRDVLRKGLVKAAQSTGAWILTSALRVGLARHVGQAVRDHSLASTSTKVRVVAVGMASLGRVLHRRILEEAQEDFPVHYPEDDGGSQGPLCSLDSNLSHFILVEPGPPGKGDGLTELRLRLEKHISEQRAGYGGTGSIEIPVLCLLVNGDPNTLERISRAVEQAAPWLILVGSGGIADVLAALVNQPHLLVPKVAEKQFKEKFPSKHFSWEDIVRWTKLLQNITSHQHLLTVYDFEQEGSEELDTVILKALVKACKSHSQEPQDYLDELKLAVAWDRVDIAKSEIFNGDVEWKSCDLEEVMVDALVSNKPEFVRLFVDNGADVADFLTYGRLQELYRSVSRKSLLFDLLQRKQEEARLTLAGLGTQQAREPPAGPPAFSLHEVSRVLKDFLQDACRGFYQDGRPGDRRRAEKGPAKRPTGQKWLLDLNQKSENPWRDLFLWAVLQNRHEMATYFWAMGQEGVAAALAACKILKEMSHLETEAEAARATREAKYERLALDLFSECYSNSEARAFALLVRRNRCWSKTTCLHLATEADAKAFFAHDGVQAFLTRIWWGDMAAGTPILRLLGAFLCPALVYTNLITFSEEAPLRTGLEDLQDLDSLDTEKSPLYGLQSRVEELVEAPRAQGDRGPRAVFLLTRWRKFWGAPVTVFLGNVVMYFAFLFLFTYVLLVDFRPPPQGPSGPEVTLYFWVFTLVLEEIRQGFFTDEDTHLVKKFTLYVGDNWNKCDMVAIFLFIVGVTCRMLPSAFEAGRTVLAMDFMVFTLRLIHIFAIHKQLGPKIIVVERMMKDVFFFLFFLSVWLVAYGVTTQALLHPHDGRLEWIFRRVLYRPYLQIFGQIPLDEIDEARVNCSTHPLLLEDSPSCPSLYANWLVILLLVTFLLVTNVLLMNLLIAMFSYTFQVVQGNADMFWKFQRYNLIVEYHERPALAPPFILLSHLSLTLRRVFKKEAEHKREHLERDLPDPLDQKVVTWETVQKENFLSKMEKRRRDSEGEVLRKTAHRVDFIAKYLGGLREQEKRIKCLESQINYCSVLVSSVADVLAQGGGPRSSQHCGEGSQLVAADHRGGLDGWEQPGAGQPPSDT

[2] = target: Transient receptor potential cation channel subfamily M member 4 (Homo sapiens, UniProt Q8TD43); experiment: Agonist activity at human TRPM4 expressed in CHO-K1 cells assessed as increase in relative fluorescence unit by measuring membrane potential by FLIPR assay; type: cell-based
[3] = target: T1, Transient receptor potential cation channel subfamily M member 5; experiment: Agonist activity at human TRPM5 expressed in HEK cells by whole cell electrophysiology method; type: cell-based
[4] = Metabolic stability in human liver microsomes assessed as intrinsic clearance; type: ADME, Microsome; conditions: read-out: CLH
[5] = Solubility of the compound in JP2 solution; type: physicochemical
[6] = Solubility of the compound in JP1 solution; type: physicochemical
[7] = Intrinsic clearance in Sprague-Dawley rat; type: ADME
[8] = target: T1, Transient receptor potential cation channel subfamily M member 5; experiment: Agonist activity at TRPM5 (unknown origin)
[9] = Metabolic stability in human liver microsomes assessed as half life; type: ADME, Microsome; conditions: liver microsomes
[10] = Half-life in Sprague-Dawley rat; type: ADME; conditions: in vivo
[11] = target: T2, Transient receptor potential cation channel subfamily M member 5 (Homo sapiens) (UniProt Q9NZQ8); experiment: Agonist activity at human TRPM5 expressed in human Caco-2 cells assessed as increase in acetylcholine release at 50 uM incubated for 18 hrs by mass spectrometric analysis; type: cell-based; conditions: filed as agonist
T2 sequence (whole entry): T1 sequence (Q9NZQ8 whole entry)

[12] = target: T1, Transient receptor potential cation channel subfamily M member 5; experiment: Agonist activity at human TRPM5 in HEK293T cells by FLIPR based assay; type: cell-based
Mus musculus [13] = experiment: Induction of gastrointestinal motility in CD-1 mouse assessed as increase in fecal weight at 10 to 100 mg/kg, po measured upto 6 hrs; type: functional, organism-based; conditions: dose 10-100 mg/kg
Mus musculus [14] = experiment: Induction of gastrointestinal motility in CD-1 mouse assessed as increase in fecal water content at 10 to 100 mg/kg, po measured upto 6 hrs; type: functional, organism-based; conditions: dose 10-100 mg/kg
[15] = target: T3, Transient receptor potential cation channel subfamily M member 5 (Mus musculus) (UniProt Q9JJH7); experiment: Binding affinity to mouse colon mucosal epithelium TRPM5 assessed as increase in short circuit current; type: tissue-based; conditions: Colonic epithelium, filed as agonist
T3 sequence (whole entry): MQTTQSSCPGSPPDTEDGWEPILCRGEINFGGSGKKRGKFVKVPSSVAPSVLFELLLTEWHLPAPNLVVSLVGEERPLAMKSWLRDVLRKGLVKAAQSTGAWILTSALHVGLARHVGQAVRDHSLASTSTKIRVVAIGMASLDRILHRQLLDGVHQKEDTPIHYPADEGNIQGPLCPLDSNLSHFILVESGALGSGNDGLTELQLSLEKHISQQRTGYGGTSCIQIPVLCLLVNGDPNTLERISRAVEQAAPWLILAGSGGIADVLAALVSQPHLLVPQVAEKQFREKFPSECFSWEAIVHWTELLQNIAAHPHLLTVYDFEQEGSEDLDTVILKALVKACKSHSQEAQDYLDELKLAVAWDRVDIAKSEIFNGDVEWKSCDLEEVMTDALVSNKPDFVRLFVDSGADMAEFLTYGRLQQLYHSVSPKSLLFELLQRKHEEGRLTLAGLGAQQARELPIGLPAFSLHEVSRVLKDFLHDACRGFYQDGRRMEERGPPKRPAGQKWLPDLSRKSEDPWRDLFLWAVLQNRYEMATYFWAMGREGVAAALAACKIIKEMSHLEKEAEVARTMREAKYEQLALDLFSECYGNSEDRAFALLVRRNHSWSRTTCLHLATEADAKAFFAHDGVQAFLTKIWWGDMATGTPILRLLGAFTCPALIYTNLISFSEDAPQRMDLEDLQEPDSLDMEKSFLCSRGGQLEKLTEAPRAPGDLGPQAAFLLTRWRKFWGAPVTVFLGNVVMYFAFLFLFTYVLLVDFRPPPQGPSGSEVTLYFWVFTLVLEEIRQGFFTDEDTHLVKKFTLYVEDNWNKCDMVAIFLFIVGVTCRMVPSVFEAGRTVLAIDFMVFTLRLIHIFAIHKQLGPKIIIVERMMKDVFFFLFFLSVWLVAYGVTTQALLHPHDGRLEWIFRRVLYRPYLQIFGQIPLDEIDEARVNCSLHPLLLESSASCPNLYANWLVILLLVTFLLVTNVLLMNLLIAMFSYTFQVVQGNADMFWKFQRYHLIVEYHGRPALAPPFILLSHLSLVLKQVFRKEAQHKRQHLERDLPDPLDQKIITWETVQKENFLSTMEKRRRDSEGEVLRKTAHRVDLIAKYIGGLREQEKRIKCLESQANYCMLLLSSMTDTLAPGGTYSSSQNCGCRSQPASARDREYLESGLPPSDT

Transient receptor potential cation channel subfamily M member 4, sequence (Q8TD43 whole entry): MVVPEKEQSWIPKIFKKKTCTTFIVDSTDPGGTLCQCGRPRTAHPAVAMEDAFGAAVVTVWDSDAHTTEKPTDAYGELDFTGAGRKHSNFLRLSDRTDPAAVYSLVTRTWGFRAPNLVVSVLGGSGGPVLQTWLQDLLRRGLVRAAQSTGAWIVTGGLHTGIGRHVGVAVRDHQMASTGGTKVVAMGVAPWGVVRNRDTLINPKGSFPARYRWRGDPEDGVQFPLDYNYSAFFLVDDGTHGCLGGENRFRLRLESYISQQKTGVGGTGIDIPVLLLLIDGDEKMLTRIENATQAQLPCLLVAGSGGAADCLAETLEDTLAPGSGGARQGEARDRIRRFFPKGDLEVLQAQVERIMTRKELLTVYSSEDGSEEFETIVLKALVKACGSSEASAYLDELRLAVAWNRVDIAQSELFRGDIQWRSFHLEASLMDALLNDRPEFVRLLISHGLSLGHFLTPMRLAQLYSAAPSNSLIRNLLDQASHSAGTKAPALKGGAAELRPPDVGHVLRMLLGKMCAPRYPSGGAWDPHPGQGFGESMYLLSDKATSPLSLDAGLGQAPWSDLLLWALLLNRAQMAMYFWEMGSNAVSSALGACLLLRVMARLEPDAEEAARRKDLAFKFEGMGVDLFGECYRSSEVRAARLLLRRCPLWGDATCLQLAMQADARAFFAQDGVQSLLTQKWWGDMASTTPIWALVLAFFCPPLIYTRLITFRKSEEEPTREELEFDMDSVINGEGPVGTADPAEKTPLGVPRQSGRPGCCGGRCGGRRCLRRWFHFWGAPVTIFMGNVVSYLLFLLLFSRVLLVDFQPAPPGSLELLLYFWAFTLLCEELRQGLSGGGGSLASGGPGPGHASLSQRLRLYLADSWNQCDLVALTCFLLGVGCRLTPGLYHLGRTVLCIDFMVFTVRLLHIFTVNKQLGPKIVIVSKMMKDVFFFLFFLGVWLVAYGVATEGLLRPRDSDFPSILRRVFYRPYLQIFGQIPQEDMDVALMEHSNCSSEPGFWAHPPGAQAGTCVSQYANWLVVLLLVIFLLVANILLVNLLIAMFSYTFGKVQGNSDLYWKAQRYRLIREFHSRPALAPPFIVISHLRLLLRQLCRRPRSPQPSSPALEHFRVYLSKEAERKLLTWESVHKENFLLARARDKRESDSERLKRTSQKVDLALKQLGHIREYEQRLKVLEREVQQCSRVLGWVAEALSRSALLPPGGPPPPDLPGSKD

Structure (SMILES)	pEC50 [1]	other results
OC[C@@H]1Cc2cc(Cl)ccc2[C@H](c2ccccc2)N1	6.30	pEC50 [2]: 4.58
OC[C@@H]1Cc2cc(Cl)c(F)cc2[C@H](c2ccccc2)N1	6.50	
OC[C@@H]1Cc2ccc(Cl)cc2[C@H](c2cc(Cl)cc(Cl)c2)N1	6.70	pEC50 [2]: 5.05
Cc1ccc2c(c1)C[C@@H](CO)N[C@H]2c1ccccc1	5.00	
Cc1ccc([C@@H]2N[C@H](CO)Cc3ccc(Cl)cc32)cc1	5.20	
N#Cc1ccc2c(c1)[C@H](c1cc(F)cc(Cl)c1)N[C@H](CO)C2	5.10	
Cc1cc([C@@H]2N[C@H](CO)Cc3ccc(Cl)cc32)ccc1Cl	6.00	pEC50 [2]: 4.59
OC[C@@H]1Cc2ccc(Cl)cc2[C@H](c2cccc(F)c2)N1	6.50	pEC50 [2]: 5.77
OC[C@@H]1Cc2ccc(Cl)cc2[C@H](c2cccnc2)N1	4.70	
CN1[C@H](CO)Cc2ccc(Cl)cc2[C@@H]1c1ccccc1	< 4.50	
Clc1cnc(CNc2cc3sncc3cc2Cl)s1		Activity [11]: Active
OC[C@@H]1Cc2ccc(Cl)cc2[C@@H](c2ccccc2)N1 (racemic)	< 4.50	
Cc1ccccc1[C@@H]1N[C@H](CO)Cc2ccc(Cl)cc21	< 4.50	
OC[C@@H]1Cc2cc(Cl)ncc2[C@H](c2cc(F)cc(Cl)c2)N1	5.70	
OC[C@@H]1Cc2cc(Cl)c(Cl)cc2[C@H](c2ccccc2)N1	7.30	
OC[C@@H]1Cc2ccc(Cl)cc2[C@H](c2cccc(Cl)c2)N1	6.30	pEC50 [2]: 5.74
OC[C@@H]1Cc2ccc(Cl)cc2[C@H](c2cc(F)cc(F)c2)N1	6.70	pEC50 [2]: 6.23
OC[C@@H]1Cc2ccc(Cl)cc2[C@H](c2ccccc2)N1 (racemic)	6.10	pEC50 [2]: 4.61
C=CC(C)(C)c1cc2cc3c(cc2oc1=O)O[C@H](C(C)(C)OC(C)=O)C3		pEC50 [12]: 4.57
OC[C@@H]1Cc2cc(Cl)ccc2[C@H](c2ccccc2Cl)N1	5.80	
Cc1ccc2c(c1)[C@H](c1ccccc1)N[C@H](CO)C2	5.00	
OC[C@@H]1Cc2c(Cl)cccc2[C@H](c2ccccc2)N1	5.90	
OCc1cc2ccc(Cl)cc2c(-c2ccccc2)n1	< 4.50	
OC[C@@H]1Cc2ccc(Cl)cc2[C@H](c2ccncc2)N1	< 4.50	
N#Cc1ccc2c(c1)C[C@H](CO)N[C@@H]2c1cc(F)cc(Cl)c1		Activity [11]: Active; Activity (Mus musculus [13]): Active; Activity (Mus musculus [14]): Active; Activity [15]: Active
N#Cc1cc(F)cc([C@@H]2N[C@H](CO)Cc3cc(Cl)ccc32)c1	6.60	

The next lines start with results.

pEC50 [1]	Structure (SMILES)	other results
< 4.50	OC[C@@H]1Cc2ccccc2[C@H](c2ccccc2)N1	
< 4.50	OC[C@@H]1Cc2cccc(Cl)c2[C@H](c2ccccc2)N1	
6.20	C=CCNC(=S)/N=c1/sc2ccccc2n1C	pEC50 [3]: 5.03; CLint scaled [4]: 338 mL/min/kg; solubility [5]: 0.9 µM (≈ 0.237 µg/mL); solubility [6]: 1.7 µM (≈ 0.448 µg/mL); CLint scaled [7]: 540 mL/min/kg; pEC50 [8]: 5.00; half-life [9]: 4.1 min; half-life [10]: 2.6 min
4.80	COC[C@@H]1Cc2ccc(Cl)cc2[C@H](c2ccccc2)N1	
< 4.50	OC[C@H]1Cc2ccc(Cl)cc2[C@H](c2ccccc2)N1	
7.00	OC[C@@H]1Cc2ccc(Cl)cc2[C@H](c2cc(F)cc(Cl)c2)N1	pEC50 [2]: 5.87
5.50	OC[C@@H]1Cc2cc(Cl)cnc2[C@H](c2cc(F)cc(Cl)c2)N1	
4.70	N#Cc1ccc2c(c1)C[C@@H](CO)N[C@H]2c1cc(F)cc(Cl)c1	
5.10	OC[C@@H]1Cc2ccc(Cl)cc2[C@H](c2ccccn2)N1	
7.20	OC[C@@H]1Cc2cc(Cl)ccc2[C@H](c2cc(F)cc(Cl)c2)N1	
